# Measurements taken from ChEMBL document CHEMBL4665643 (Bioorg Med Chem Lett, 2019).
# How the values were obtained:
# [1] = biological target: High affinity nerve growth factor receptor (Homo sapiens) (UniProt P04629); assay: Inhibition of recombinant human His-tagged TRKA (441 to 796 residues) expressed in baculovirus expression system using Tyr 01 as substrate at 0.1 uM incubated for 60 mins by Z'-Lyte assay relative to control
# [2] = biological target: CDK8/Cyclin C (Homo sapiens) (UniProt P49336+P24863); assay: Inhibition of tracer 236 binding to recombinant human His-tagged full length CDK8/Cyclin C expressed in baculovirus expression system at 0.1 uM incubated for 60 mins by Lanthascreen assay relative to control
# [3] = biological target: T1, Ephrin type-B receptor 2 (Homo sapiens) (UniProt P29323); assay: Inhibition of recombinant human GST-tagged EPHB2 (616 to 884 residues) expressed in baculovirus expression system using Tyr 02 as substrate at 0.1 uM incubated for 60 mins by Z'-Lyte assay relative to control
# T1 sequence (whole entry): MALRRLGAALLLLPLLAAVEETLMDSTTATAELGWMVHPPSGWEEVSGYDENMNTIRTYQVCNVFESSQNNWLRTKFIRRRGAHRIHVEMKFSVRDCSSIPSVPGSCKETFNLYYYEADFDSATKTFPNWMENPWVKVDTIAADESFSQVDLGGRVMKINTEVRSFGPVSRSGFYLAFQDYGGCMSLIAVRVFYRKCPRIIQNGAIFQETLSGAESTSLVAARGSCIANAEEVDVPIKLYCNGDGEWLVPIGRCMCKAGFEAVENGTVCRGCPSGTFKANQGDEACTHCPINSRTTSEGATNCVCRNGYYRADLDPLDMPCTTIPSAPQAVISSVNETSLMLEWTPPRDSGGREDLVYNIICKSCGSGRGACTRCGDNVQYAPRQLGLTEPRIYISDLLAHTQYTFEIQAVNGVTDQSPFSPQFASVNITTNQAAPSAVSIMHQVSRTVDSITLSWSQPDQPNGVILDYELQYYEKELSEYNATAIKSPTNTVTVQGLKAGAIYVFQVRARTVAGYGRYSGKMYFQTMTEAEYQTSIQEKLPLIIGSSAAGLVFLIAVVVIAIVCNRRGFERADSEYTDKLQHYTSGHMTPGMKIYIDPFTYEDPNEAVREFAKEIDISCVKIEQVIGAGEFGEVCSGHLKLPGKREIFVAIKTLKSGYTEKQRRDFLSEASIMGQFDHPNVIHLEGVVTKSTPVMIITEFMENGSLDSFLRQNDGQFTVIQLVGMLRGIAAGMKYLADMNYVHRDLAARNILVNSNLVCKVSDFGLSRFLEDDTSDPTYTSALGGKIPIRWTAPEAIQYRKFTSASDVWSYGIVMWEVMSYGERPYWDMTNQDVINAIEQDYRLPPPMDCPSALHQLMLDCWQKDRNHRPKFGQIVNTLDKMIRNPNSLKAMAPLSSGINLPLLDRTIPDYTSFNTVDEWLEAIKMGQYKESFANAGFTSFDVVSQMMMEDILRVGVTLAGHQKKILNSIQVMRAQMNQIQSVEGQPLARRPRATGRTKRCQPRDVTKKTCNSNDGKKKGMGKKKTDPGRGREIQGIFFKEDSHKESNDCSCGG
# [4] = biological target: T2, Serine/threonine-protein kinase TAO2 (Homo sapiens) (UniProt Q9UL54); assay: Inhibition of recombinant human GST-tagged TAO2 (1 to 314 residues) expressed in baculovirus expression system using Ser/Thr 07 as substrate at 0.1 uM incubated for 60 mins by Z'-Lyte assay relative to control
# T2 sequence (whole entry): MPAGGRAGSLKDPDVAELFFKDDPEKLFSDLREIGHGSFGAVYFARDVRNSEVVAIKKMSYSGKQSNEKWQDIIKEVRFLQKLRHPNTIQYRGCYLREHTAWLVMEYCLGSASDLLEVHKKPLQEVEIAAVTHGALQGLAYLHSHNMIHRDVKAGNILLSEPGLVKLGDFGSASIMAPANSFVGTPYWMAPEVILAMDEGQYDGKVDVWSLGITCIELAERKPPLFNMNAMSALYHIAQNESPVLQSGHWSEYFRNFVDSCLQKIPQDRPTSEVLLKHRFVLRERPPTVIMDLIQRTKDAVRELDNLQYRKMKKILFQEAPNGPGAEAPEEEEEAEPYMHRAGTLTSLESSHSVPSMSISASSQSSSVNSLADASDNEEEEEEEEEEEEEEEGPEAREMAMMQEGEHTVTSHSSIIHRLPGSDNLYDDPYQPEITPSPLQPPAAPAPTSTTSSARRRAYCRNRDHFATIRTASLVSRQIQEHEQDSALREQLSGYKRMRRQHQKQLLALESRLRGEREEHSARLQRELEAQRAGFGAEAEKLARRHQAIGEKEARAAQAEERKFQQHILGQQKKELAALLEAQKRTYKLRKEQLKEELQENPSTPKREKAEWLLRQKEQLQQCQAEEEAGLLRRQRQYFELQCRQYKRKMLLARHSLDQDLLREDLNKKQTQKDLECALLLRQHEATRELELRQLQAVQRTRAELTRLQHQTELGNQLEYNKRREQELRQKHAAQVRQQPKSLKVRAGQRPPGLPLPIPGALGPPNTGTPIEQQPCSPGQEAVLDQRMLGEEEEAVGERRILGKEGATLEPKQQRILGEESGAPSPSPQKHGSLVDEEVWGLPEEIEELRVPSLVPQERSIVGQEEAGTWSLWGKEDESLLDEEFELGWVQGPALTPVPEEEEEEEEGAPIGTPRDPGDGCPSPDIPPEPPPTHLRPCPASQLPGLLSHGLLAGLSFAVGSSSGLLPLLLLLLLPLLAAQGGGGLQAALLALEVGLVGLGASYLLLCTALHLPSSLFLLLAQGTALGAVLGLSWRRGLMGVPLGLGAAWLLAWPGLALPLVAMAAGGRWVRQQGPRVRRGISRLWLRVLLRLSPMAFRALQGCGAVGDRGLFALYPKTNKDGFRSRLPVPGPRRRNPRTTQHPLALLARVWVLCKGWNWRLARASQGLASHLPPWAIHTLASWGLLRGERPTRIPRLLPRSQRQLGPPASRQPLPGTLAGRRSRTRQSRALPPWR
# Sequence of High affinity nerve growth factor receptor (Homo sapiens) (P04629 33-796 limits assumed): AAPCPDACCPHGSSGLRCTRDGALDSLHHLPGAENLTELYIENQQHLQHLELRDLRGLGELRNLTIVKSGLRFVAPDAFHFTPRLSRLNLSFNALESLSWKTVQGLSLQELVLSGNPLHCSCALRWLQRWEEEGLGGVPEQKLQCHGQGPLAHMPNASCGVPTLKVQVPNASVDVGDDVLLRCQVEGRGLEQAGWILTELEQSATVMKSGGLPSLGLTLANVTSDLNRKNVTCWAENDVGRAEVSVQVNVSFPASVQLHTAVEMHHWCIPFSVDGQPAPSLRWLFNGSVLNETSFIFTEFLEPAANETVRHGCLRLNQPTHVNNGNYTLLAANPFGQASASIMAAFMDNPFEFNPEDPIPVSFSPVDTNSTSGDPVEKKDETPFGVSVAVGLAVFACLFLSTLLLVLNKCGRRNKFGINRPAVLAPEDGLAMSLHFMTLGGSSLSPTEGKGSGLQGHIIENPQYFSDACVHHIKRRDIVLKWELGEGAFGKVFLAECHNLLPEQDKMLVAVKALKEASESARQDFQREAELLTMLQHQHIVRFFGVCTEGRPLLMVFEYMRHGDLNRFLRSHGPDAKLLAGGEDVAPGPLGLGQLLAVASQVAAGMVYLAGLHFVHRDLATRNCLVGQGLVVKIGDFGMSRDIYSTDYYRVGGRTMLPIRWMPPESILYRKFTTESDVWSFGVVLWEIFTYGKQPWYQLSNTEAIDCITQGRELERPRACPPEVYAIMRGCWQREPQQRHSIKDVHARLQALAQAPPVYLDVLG
smiles,measurement,setting,value
Cn1cc(NC(=O)c2cnn3cccnc23)c(-c2cc(Cl)ccc2OC(F)F)n1,inhibition,[1],44%
same,inhibition,[2],14%
same,inhibition,[3],1%
same,inhibition,[4],4%
O=C(Nc1c[nH]nc1-c1cc2ccccc2cc1OC(F)F)c1cnn2cccnc12,inhibition,[1],23%
same,inhibition,[2],24%
same,inhibition,[3],-3%
same,inhibition,[4],8%
O=C(Nc1c[nH]nc1-c1cc(Cl)ccc1OC(F)F)c1cnn2cccnc12,inhibition,[1],59%
same,inhibition,[2],38%
same,inhibition,[3],10%
same,inhibition,[4],1%
